This test has as its target T1, gp120-CD4 binding (Human immunodeficiency virus type 1 group M subtype B, UniProt P03375).
T1 construct: coated with 100 ng/well of either gp120 IIIB or gp120 BaL
Also noted: species or system HIV-1. The note with it: purified commercial compounds at 200 μg/ml. The method, then:
CD4-HIV-1 gp120 binding and its inhibition were measured by ELISA. Wells of 96-well polystyrene plates (Immulon II, Dynatech Laboratories, Inc., Chantilly, Va.) were coated with 100 ng/well of either gp120 IIIB or gp120 BaL, and post-coated as described [Neurath, A. R., Strick, N., Li, Y. Y., Debnath, A. K.: Cellulose acetate phthalate, a common pharmaceutical excipient, inactivates HIV-1 and blocks the coreceptor binding site on the virus envelope glycoprotein gp120, BMC Infect. Dis., (2001), 1:17]. […] The wells were washed 5× with TS. Biotinyl-CD4 (1 μg/ml) in TS-1% gelatin was added to the wells for 5 hours at 37° C. After washing 1× with TS-0.1% Tween 20 and 5× with TS, horseradish peroxidase (HRP)-streptavidin (0.625 μg/ml; Amersham, Arlington Heights, Ill.) in TS-2% gelatin-0.05% Tween 20 was added. After 30 minutes at 37° C., the wells were washed 4 x with TS-0.1% Tween 20 and 2× with TS. Bound HRP-was detected using a kit from Kirkegaard and Perry Laboratories Inc. (Gaithersburg, Md.) and the absorbance (A) read at 450 nm. […] In an alternative assay, CD4 (500 ng/ml) was mixed with biotinyl-gp120 (1 μg/ml) in the presence or absence of inhibitors for 30 minutes at 20° C. Serial dilutions of the mixtures were added to wells coated with the anti-CD4 mAb OKT 4 (Ortho-Clinical Diagnostics, Rochester, N.Y.) and captured biotinyl-gp120 was detected with HRP-streptavidin as described above. To measure binding to gp120 of antibodies to gp120 peptides, the respective rabbit antisera were diluted 50-fold in a mixture of FBS and goat serum (9:1) containing 0.1% Tween 20 (pH 8.0) and added to gp120 wells. Bound IgG was detected with HRP labeled anti-rabbit IgG (Sigma, St. Louis, Mo.; 1 μg/ml in TS-10% goat serum-0.1% Tween 20). […] Briefly, FLSC (125 ng/ml) in the absence or presence of graded amounts of inhibitors was added to Cf2Th/synCCR5 cells fixed with 5% formaldehyde in wells of 96-well plates.
Turning to `O=C(O)/C=C/c1ccc(O)c(O)c1` [caffeic acid], the “blocking of gp120-CD4 binding (ELISA)” value was “did not block”.

For `O=c1c(O)c(-c2ccc(O)c(O)c2)oc2cc(O)cc(O)c12` [quercetin], the “blocking of gp120-CD4 binding (ELISA)” value is “did not block”.

In the case of `C[C@H]1[C@H](C)CC[C@]2(C(=O)O)CC[C@]3(C)C(=CC[C@@H]4[C@@]5(C)CC[C@H](O)C(C)(C)[C@@H]5CC[C@]43C)[C@H]12` [ursolic acid], the “blocking of gp120-CD4 binding (ELISA)” value is recorded as “did not block”.

As to catechin, the “blocking of gp120-CD4 binding (ELISA)” value was “did not block”.

These data come from patent US20060062866A1, “Starch-pomegranate juice complex as an HIV entry inhibitor and topical microbicide” (NEW YORK BLOOD CENTER, INC., priority 2004, published 2006).
